From US20160237302A1, “WATERBORNE COMPOSITIONS” (VICTORIA LINK LIMITED, priority 2013, published 2016)

Legend:
Assay type in all cases: physicochemical
[1] = Appearance of polyketone in water at 20% w/v
Description: (§1) To a solution or dispersion of the polyketone (1 g in 5 mL of distilled water) is added hydrazide (0.9 stoichiometric equivalents of acyl hydrazide moiety compared to ketone functional group).

[2] = Appearance of aqueous composition on hydrazide addition (polyhydrazone formation); conditions: appearance in water; for Polyhydrazone from 0.9 eq Formula II-B addition / Polyhydrazone from 0.9 eq Formula II-C addition: polyketone 20% w/v; for Polyhydrazone from 0.9 eq ADH addition: polyketone 20% w/v + 0.9 eq ADH
Description: as §1

[3] = Film formation of cast polyhydrazone material; conditions: for Cast material: cast from water
Description: as §1

[4] = Glass transition temperature by DSC; conditions: for Tg: polyhydrazone from polyketone + 0.9 eq ADH, DSC
Description: Glass transition temperatures (Tg) are measured by differential scanning calorimetry (DSC). Samples were prepared by compressing 2-20 mg of material into a 40 μL pierced aluminium pan and were scanned between −40° and +180° C. at either 10° C./min or 5° C./min. The samples were heated and cooled three times and Tg data were obtained from the second and third sweep; ignoring the initial annealing and desolvating sweep. Tg were determined by observation of the rate of change of slope and baseline shift for the glass and plastic states.
as §1

[5] = Polyhydrazone formation in ACN, ACN/water, THF/water or water at 20-50% w/v; conditions: appearance
[6] = Appearance of aqueous composition on hydrazide addition (polyhydrazone formation); conditions: water
[7] = polyhydrazone from polyketone + 0.9 eq ADH
[8] = polyhydrazone from (7) and formula II-C, cast film

| Polyketone in water at 20% w/v ([1]; 1 g in 5 mL distilled water) | Polyketone in water at 20% w/v ([1]; second table) | Polyhydrazone from 0.9 eq Formula II-B addition [2] | Polyhydrazone from 0.9 eq Formula II-C addition [2] | Polyhydrazone from 0.9 eq ADH addition [2] | Time over which cast film hardened [3, 7] | Cast material [3, 7] | Tg [4] | Cast film of polyhydrazone oil ([3]; polyhydrazone from (7) and formula II-C) | Tg (annealed) [4, 8] | Tg (initial) [4, 8] | Polyhydrazone from 0.9 eq ADH in ACN at 50% w/v [5] | Polyhydrazone from 0.9 eq ADH in water at 50% w/v [5] | Polyhydrazone from 0.9 eq. Formula II-C in ACN at 50% w/v [5] | Polyhydrazone from 0.9 eq ADH addition, at higher concentrations [6] | Polyhydrazone from 0.9 eq Formula II-C addition ([2]; initially after hydrazide addition) | Polyhydrazone from 0.9 eq Formula II-C addition ([2]; subsequently after hydrazide addition) | SMILES |
| --- | --- | --- | --- | --- | --- | --- | --- | --- | --- | --- | --- | --- | --- | --- | --- | --- | --- |
| Clear solution | Clear solution | Cloudy solution, gel | Cloudy solution, | Clear solution | hardened over 5-days. | Soft easily marked film that | 27 °C | – | – | – | – | – | – | – | – | – | CC(=O)CCC(=O)OCCOCCOC(=O)CCC(C)=O [Polyketone compound (2), Diethyleneglycol Dilevulinate] |
| Unstable emulsion | – | – | – | Opaque solution | – | Hard film | 121 °C | strong brittle film | 20 °C | 38.5 °C | Pale yellow solid | Pale yellow gel | Yellow oil | – | – | – | CC(=O)CCC(=O)OC(C)C(C)OC(=O)CCC(C)=O (stereo not drawn) [Polyketone compound (7), 2,3-Butanediol Dilevulinate] |
| Clear solution | Clear solution | No reaction | Forms white solid | Clear solution | – | – | 38 °C | – | – | – | – | – | – | Gels at higher | – | – | CC(=O)CCC(=O)OCCN(CCOC(=O)CCC(C)=O)CCOC(=O)CCC(C)=O [Polyketone compound (6), Triethanolamine Trilevulinate] |
| Clear solution | Clear solution | White precipitate | – | Clear solution | – | Shiny soft well adhered | 37 °C | – | – | – | – | – | – | – | Clear solution | precipitate forms | CC(=O)CCC(=O)OCCOC(=O)CCC(C)=O [Polyketone compound (1), Ethyleneglycol Dilevulinate] |
| Unstable emulsion | – | – | – | Gels upon | – | Hard shiny well adhered | 60 °C | – | – | – | – | – | – | – | – | – | CC(=O)CCC(=O)OCC(COC(=O)CCC(C)=O)OC(=O)CCC(C)=O [Polyketone compound (3), Glycerol Trilevulinate] |
| – | – | – | – | – | – | – | – | – | – | – | Yellow oil formed | Pale yellow gel | – | – | – | – | CC(=O)CCC(=O)OCc1ccc(COC(=O)CCC(C)=O)cc1 [Polyketone compound (8), 1,4-Dimethanolbenzene Dilevulinate] |
